Read-outs that look alike come from different tables or passages of the source.
What was measured:
[1] = molecular target: GSK3α (GST-full length GSK3α) (Homo sapiens (Human), UniProt P49840); assay: GSK3α TR-FRET kinase assay; assay type: biochemical
Procedure, shortened: (§1)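 Full-length GST-tagged human enzyme (1 nM) is exposed to test compound for 30 min before substrates are added. Phosphorylation of a primed biotinylated glycogen synthase peptide proceeds 100 min at room temperature at low ATP (4 μM α; 2 μM β) or high ATP (1 mM). Product is quantified by TR-FRET.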

[2] = molecular target: GSK3b (GST-full length GSK3b) (Homo sapiens (Human), UniProt P49841); assay: GSK3b TR-FRET kinase assay; assay type: biochemical
Chain of GSK3b (GST-full length GSK3b) (P49841 whole entry): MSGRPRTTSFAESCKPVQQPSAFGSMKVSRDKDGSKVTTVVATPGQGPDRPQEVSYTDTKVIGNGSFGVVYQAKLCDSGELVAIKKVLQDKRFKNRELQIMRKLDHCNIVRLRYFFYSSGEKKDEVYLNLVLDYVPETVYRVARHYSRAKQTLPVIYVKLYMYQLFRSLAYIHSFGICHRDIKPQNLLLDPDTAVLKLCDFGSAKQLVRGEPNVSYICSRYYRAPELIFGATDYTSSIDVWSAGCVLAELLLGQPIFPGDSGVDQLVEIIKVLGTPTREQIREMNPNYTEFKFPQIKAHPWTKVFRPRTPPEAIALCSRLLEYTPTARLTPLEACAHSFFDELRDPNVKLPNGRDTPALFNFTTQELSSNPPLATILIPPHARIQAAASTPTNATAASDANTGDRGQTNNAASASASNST
Procedure, shortened: as §1

[3] = tested on: MDR1-MDCK cell monolayers; assay: MDR1/MDCK assay (blood-brain barrier penetration potential); assay type: in vitro ADME; settings: 5 μM, pH 7.4, 120 minutes; for MDCK permeability (MDR1-MDCK); Mean; Papp (A − B): A to B; for MDCK permeability (MDR1-MDCK); Mean; Papp (B − A): B to A
Method: The MDR1/MDCK assay is run at Absorption Systems. This assay is used to determine the blood-brain barrier (BBB) penetration potential of a test compound using MDR1-MDCK cell monolayers. Catalog number EA203.
• Test compound at 5 μM in HBSSg with maximum DMSO concentration not greater than 1%.
• Confluent monolayers of MDR1-MDCK cells, 7 to 11 days old.
• Receiver well with 1% BSA in modified Hanks buffer (HBSSg) • Apical and basolateral side at pH 7.4 • Dose two monolayers in each direction (N=2) • Dose apical side for (A to B) assessment • Dose basolateral side for (B to A) assessment • Sample both apical and basolateral sides at 120 minutes • Determine the concentrations of test compound using a generic LC-MS/MS method with a minimum 4 point calibration curve.
• The quality of the cell monolayer batch is verified using control compounds before monolayers are released for use • The quality of each monolayer used in the assay is verified by a TEER measurement and by calculating the Papp for a control compound.

[4] = read-out: GSK3-A (TR-FRET 1 mM ATP), GMean, IC50, 1 mM ATP, geometric mean
[5] = read-out: GSK3-B (TR-FRET 1 mM ATP), GMean, IC50, 1 mM ATP, geometric mean
[6] = 1 nM GSK3α, 4 μM ATP, 30 minute preincubation, Table 16, read-out: GSK3-A TR-FRET BIOCHEMICAL (TR-FRET)
[7] = GSK3-A (TR-FRET 1 mM ATP), GMean, IC50, 1 mM ATP, geometric mean
[8] = 1 nM GSK3b, 2 μM ATP, 30 minute preincubation, Table 16, read-out: GSK3-B TR-FRET BIOCHEMICAL (TR-FRET)
[9] = GSK3-B (TR-FRET 1 mM ATP), GMean, IC50, 1 mM ATP, geometric mean
[10] = 1 nM GSK3α, 4 μM ATP, 30 minute preincubation, Table 16, read-out: GSK3-A TR-FRET BIOCHEMICAL (TR-FRET), IC50
[11] = 1 nM GSK3b, 2 μM ATP, 30 minute preincubation, Table 16, read-out: GSK3-B TR-FRET BIOCHEMICAL (TR-FRET), IC50

Chain of GSK3α (GST-full length GSK3α) (P49840 whole entry): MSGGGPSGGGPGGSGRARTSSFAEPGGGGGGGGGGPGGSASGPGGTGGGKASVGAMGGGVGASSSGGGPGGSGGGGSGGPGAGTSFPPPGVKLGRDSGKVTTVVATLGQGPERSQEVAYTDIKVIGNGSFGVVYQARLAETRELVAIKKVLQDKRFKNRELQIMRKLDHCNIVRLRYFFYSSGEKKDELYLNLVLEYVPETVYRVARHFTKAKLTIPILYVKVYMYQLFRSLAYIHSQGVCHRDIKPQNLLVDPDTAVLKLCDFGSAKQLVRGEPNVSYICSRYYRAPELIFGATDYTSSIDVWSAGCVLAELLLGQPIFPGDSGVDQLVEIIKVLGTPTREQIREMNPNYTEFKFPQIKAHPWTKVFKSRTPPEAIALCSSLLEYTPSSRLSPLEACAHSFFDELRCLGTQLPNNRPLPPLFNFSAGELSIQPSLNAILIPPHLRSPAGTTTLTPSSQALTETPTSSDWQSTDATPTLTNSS

SMILES	IC50 [1, 6]	IC50 [2, 8]	IC50 [1, 10]	IC50 [2, 11]	also measured
CN(C)S(=O)(=O)c1cccc(C2(C)C3=C(CC(C)(C)CC3=O)Nc3n[nH]c(CC(C)(C)C)c32)c1 (stereo not drawn) [Compound 126012]					IC50 [1, 4]: 1000 to 5000 nM; IC50 [2, 5]: 100 to 1000 nM; MDCK permeability (MDR1-MDCK); Mean; Papp Ratio (B − A/A − B) (efflux ratio) [3]: 120; MDCK permeability (MDR1-MDCK); Mean; Papp (A − B) [3]: 0.47 10^−6 cm/s; MDCK permeability (MDR1-MDCK); Mean; Papp (B − A) [3]: 56.2 10^−6 cm/s
Cn1cncc1-c1cccc(C2(C)C3=C(CC(C)(C)CC3=O)Nc3n[nH]c(CC(C)(C)C)c32)c1 (stereo not drawn) [Compound 126014]					IC50 [1, 4]: 100 to 1000 nM; IC50 [2, 5]: 100 to 1000 nM; MDCK permeability (MDR1-MDCK); Mean; Papp Ratio (B − A/A − B) (efflux ratio) [3]: 187; MDCK permeability (MDR1-MDCK); Mean; Papp (A − B) [3]: 0.17 10^−6 cm/s; MDCK permeability (MDR1-MDCK); Mean; Papp (B − A) [3]: 32.1 10^−6 cm/s
CC1(C)CC(=O)C2=C(C1)Nc1n[nH]cc1[C@@]21CC[C@@H](C(F)(F)F)C1 [Compound 952436]	≤ 100 nM	≤ 100 nM			IC50 [1, 7]: 1000 to 5000 nM; IC50 [2, 9]: 1000 to 5000 nM
CC1(C)CC(=O)C2=C(C1)Nc1n[nH]cc1[C@]21CC[C@@H](C(F)(F)F)C1 [Compound 952437]	100 to 1000 nM	100 to 1000 nM			
CC[C@@]1(c2cccc(C(F)(F)F)c2)C2=C(CCN(c3cn(C)c(C)n3)C2=O)Nc2n[nH]cc21 [Compound 952478]			1000 to 5000 nM	> 5000 nM	
CC[C@]1(c2cccc(C(F)(F)F)c2)C2=C(CCN(c3cn(C)c(C)n3)C2=O)Nc2n[nH]cc21 [Compound 952479]			> 5000 nM	> 5000 nM	
CCC1(c2cccc(-c3ccnc4c3CCC4)c2)C2=C(CC(C)(C)C2=O)Nc2n[nH]cc21 (stereo not drawn) [Compound 952557]			≤ 100 nM	100 to 1000 nM	
CCc1cc(-c2cccc([C@@]3(CC)C4=C(CC(C)(C)NC4=O)Nc4n[nH]cc43)c2)n(C)n1 [Compound 952561]			100 to 1000 nM	100 to 1000 nM	
CC[C@]1(c2cccc(-c3c(F)cncc3OC)c2)C2=C(CC(C)(C)C2=O)Nc2n[nH]cc21 [Compound 952562]			1000 to 5000 nM	> 5000 nM	
CC[C@]1(c2cccc(-c3cc(C)nc4c3cnn4C)c2)C2=C(CC(C)(C)NC2=O)Nc2n[nH]cc21 [Compound 952563]			1000 to 5000 nM	> 5000 nM	
CC[C@@]1(c2cccc(-c3c(F)cncc3OC)c2)C2=C(CC(C)(C)C2=O)Nc2n[nH]cc21 [Compound 952564]			≤ 100 nM	≤ 100 nM	IC50 [1, 4]: 100 to 1000 nM; IC50 [2, 5]: 1000 to 5000 nM
CC[C@]1(c2cccc(-c3cnn4ccncc34)c2)C2=C(CC(C)(C)NC2=O)Nc2n[nH]cc21 [Compound 952565]			≤ 100 nM	100 to 1000 nM	IC50 [1, 4]: 1000 to 5000 nM; IC50 [2, 5]: > 5000 nM
CCC1(c2cccc(-c3cnn(-c4ccccn4)c3)c2)C2=C(CC(C)(C)NC2=O)Nc2n[nH]cc21 (stereo not drawn) [Compound 952566]			100 to 1000 nM	1000 to 5000 nM	IC50 [1, 4]: > 5000 nM; IC50 [2, 5]: > 5000 nM
CC[C@@]1(c2cccc(C(F)(F)F)c2)C2=C(CCN(c3ccsc3)C2=O)Nc2n[nH]cc21 [Compound 952630]			≤ 100 nM	100 to 1000 nM	
CC[C@]1(c2cccc(C(F)(F)F)c2)C2=C(CCN(c3ccsc3)C2=O)Nc2n[nH]cc21 [Compound 952636]			> 5000 nM	> 5000 nM	
CC[C@]1(c2cccc(C(F)(F)F)c2)C2=C(CCN(c3cscn3)C2=O)Nc2n[nH]cc21 [Compound 952638]			> 5000 nM	> 5000 nM	
CCC1(c2cccc(-c3ccnc4c3CCCC4)c2)C2=C(CC(C)(C)C2=O)Nc2n[nH]cc21 (stereo not drawn) [Compound 952752]			≤ 100 nM	100 to 1000 nM	
CC[C@]1(c2cccc(-c3ccnc(OC)c3Cl)c2)C2=C(CC(C)(C)NC2=O)Nc2n[nH]cc21 [Compound 952754]			≤ 100 nM	100 to 1000 nM	
CC[C@]1(c2cccc(-c3ccncc3C(F)(F)F)c2)C2=C(CC(C)(C)C2=O)Nc2n[nH]cc21 [Compound 952757]			1000 to 5000 nM	> 5000 nM	
CC[C@@]1(c2cccc(-c3ccncc3C(F)(F)F)c2)C2=C(CC(C)(C)C2=O)Nc2n[nH]cc21 [Compound 952759]			≤ 100 nM	≤ 100 nM	IC50 [1, 4]: 100 to 1000 nM; IC50 [2, 5]: 1000 to 5000 nM
CC[C@]1(c2cccc(-c3c(C)cnc4c(C)cccc34)c2)C2=C(CC(C)(C)NC2=O)Nc2n[nH]cc21 [Compound 952760]			> 5000 nM	> 5000 nM	

The next lines start with results.

IC50 [1, 6]	IC50 [2, 8]	IC50 [1, 10]	IC50 [2, 11]	SMILES	also measured
		≤ 100 nM	100 to 1000 nM	CC[C@]1(c2cccc(-c3ccnc4c(C)cccc34)c2)C2=C(CC(C)(C)NC2=O)Nc2n[nH]cc21 [Compound 952909]	
> 5000 nM	> 5000 nM			CC[C@@]1(c2ccccc2)C2=C(Nc3n[nH]cc31)[C@@H](F)C(C)(C)CC2=O [Compound 957196]	
100 to 1000 nM	1000 to 5000 nM			CC[C@@]1(c2ccccc2)C2=C(Nc3n[nH]cc31)[C@H](F)C(C)(C)CC2=O [Compound 957197]	IC50 [1, 7]: > 5000 nM; IC50 [2, 9]: > 5000 nM
> 5000 nM	> 5000 nM			CC[C@]1(c2ccccc2)C2=C(Nc3n[nH]cc31)[C@@H](F)C(C)(C)CC2=O [Compound 957199]	
100 to 1000 nM	100 to 1000 nM			CC[C@]1(c2ccccc2)C2=C(Nc3n[nH]cc31)[C@H](F)C(C)(C)CC2=O [Compound 957200]	IC50 [1, 7]: > 5000 nM; IC50 [2, 9]: > 5000 nM
100 to 1000 nM	1000 to 5000 nM			CC[C@]1(c2ccccc2)C2=C(CC(C)(C)[C@H](F)C2=O)Nc2n[nH]cc21 [Compound 957403]	
> 5000 nM	> 5000 nM			CC[C@]1(c2ccccc2)C2=C(CC(C)(C)[C@@H](F)C2=O)Nc2n[nH]cc21 [Compound 957404]	
100 to 1000 nM	1000 to 5000 nM			CC[C@@]1(c2ccccc2)C2=C(CC(C)(C)[C@H](F)C2=O)Nc2n[nH]cc21 [Compound 957405]	
> 5000 nM	> 5000 nM			CC[C@@]1(c2ccccc2)C2=C(CC(C)(C)[C@@H](F)C2=O)Nc2n[nH]cc21 [Compound 957406]	
		> 5000 nM	> 5000 nM	CC[C@@]1(c2cccc(C(F)(F)F)c2)C2=C(CC(C)(C)NC2=O)Nc2n[nH]c(F)c21 [Compound 957497]	
100 to 1000 nM	1000 to 5000 nM			CCC1(c2cccc(-c3cnn(C)c3)c2)C2=C(Nc3n[nH]cc31)C(F)C(C)(C)CC2=O (stereo not drawn) [Compound 957504]	IC50 [2, 5]: > 5000 nM
≤ 100 nM	1000 to 5000 nM			CC[C@@]1(c2cccc(-c3cnn(C)c3)c2)C2=C(Nc3n[nH]cc31)[C@H](F)C(C)(C)CC2=O [Compound 957505]	IC50 [1, 4]: 1000 to 5000 nM; IC50 [2, 5]: > 5000 nM
≤ 100 nM	≤ 100 nM			CC[C@@]1(c2cccc(-c3ccnn3C)c2)C2=C(Nc3n[nH]cc31)[C@H](F)C(C)(C)CC2=O [Compound 957507]	IC50 [1, 4]: ≤ 100 nM; IC50 [2, 5]: 1000 to 5000 nM
> 5000 nM	> 5000 nM			CC[C@]1(c2cccc(-c3ccnn3C)c2)C2=C(Nc3n[nH]cc31)[C@H](F)C(C)(C)CC2=O [Compound 957508]	
100 to 1000 nM	> 5000 nM			CCC1(c2cccc(-c3ccnn3C)c2)C2=C(Nc3n[nH]cc31)C(F)C(C)(C)CC2=O (stereo not drawn) [Compound 957509]	
1000 to 5000 nM	> 5000 nM			CCC1(c2cccc(-c3cnn(C)c3)c2)C2=C(Nc3n[nH]cc31)C(F)C(C)(C)CC2=O (stereo not drawn) [Compound 957510]	
		≤ 100 nM	100 to 1000 nM	CC[C@]1(c2cccc(C(F)(F)F)c2)C2=C(CC(C)(C)NC2=O)Nc2n[nH]c(F)c21 [Compound 957518]	
≤ 100 nM	100 to 1000 nM			CCC1(c2cccc(-c3ccncc3)c2)C2=C(Nc3n[nH]cc31)C(F)C(C)(C)CC2=O (stereo not drawn) [Compound 959341]	IC50 [1, 4]: 1000 to 5000 nM; IC50 [2, 5]: > 5000 nM
1000 to 5000 nM	> 5000 nM			CCC1(c2cccc(-c3ccncc3)c2)C2=C(Nc3n[nH]cc31)C(F)C(C)(C)CC2=O (stereo not drawn) [Compound 959342]	
> 5000 nM	> 5000 nM			CC[C@]1(c2cccc(-c3ccncc3)c2)C2=C(Nc3n[nH]cc31)[C@@H](F)C(C)(C)CC2=O [Compound 959344]	
≤ 100 nM	≤ 100 nM			CCC1(c2cccc(-c3cncn3C(C)C)c2)C2=C(Nc3n[nH]cc31)C(F)C(C)(C)CC2=O (stereo not drawn) [Compound 963155]	

— patent publication US20250313563A1, “GLYCOGEN SYNTHASE KINASE 3 INHIBITORS AND USES THEREOF” (The Broad Institute, Inc., priority 2022, published 2025)
